ChEMBL document CHEMBL1201861, “Genomics of Drug Sensitity in Cancer screening data, Wellcome Trust Sanger Institute”

Key:
[1] = system: A2058; experiment: cells; type: functional, cell-based; conditions: Homo sapiens;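 also: reduction of A2058 cell growth, read out with a viability assay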
Description: SANGER: Inhibition of human A2058 cell growth in a cell viability assay.

[2] = system: NCCIT; experiment: SANGER: Inhibition of human NCCIT cell growth in a cell viability assay.; type: functional, cell-based; conditions: Homo sapiens, NCCIT
[3] = system: GP5d; experiment: cells; type: functional, cell-based; conditions: Homo sapiens;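 also: growth inhibition of human GP5d cells, read out with a cell viability assay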
Description: SANGER: Inhibition of human GP5d cell growth in a cell viability assay.

[4] = system: LN-405; experiment: cells; type: functional, cell-based; conditions: Homo sapiens
Description: SANGER: Inhibition of human LN-405 cell growth in a cell viability assay.

[5] = system: D-392MG; experiment: cells; type: functional, cell-based; conditions: Homo sapiens
[6] = system: FTC-133; experiment: cells; type: functional, cell-based; conditions: Homo sapiens
[7] = system: MKN-28; experiment: cells; type: functional, cell-based; conditions: Homo sapiens;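 also: cell viability assay read-out, IC50 reflects suppression of growth of human MKN-28 cells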
Description: SANGER: Inhibition of human MKN28 cell growth in a cell viability assay.

[8] = system: SK-N-AS; experiment: cells; type: functional, cell-based; conditions: Homo sapiens;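 also: growth inhibition of human SK-N-AS cells, measured with a cell viability assay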
Description: SANGER: Inhibition of human SK-N-AS cell growth in a cell viability assay.

[9] = system: U-698-M; experiment: cells; type: functional, cell-based, Homo sapiens; conditions: Homo sapiens, U-698-M
Description: SANGER: Inhibition of human U-698-M cell growth in a cell viability assay.

[10] = system: KYSE-510; experiment: cells; type: functional, cell-based; conditions: Homo sapiens;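 also: cell viability readout used to measure how strongly growth of the cell line is suppressed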
Description: SANGER: Inhibition of human KYSE-510 cell growth in a cell viability assay.

[11] = system: CAL-54; experiment: cells; type: functional, cell-based; conditions: Homo sapiens;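 also: growth inhibition of CAL-54 cells, read out by a viability measurement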
Description: SANGER: Inhibition of human CAL-54 cell growth in a cell viability assay.

[12] = system: VM-CUB-1; experiment: cells; type: functional, cell-based; conditions: Homo sapiens;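 also: cell viability assay measuring growth inhibition of the human VM-CUB-1 cell line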
Description: SANGER: Inhibition of human VM-CUB-1 cell growth in a cell viability assay.

[13] = system: NCI-H748; experiment: cells; type: functional, cell-based, Homo sapiens; conditions: Homo sapiens, NCI-H748;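 also: growth inhibition of NCI-H748 cells, measured by a cell viability assay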
Description: SANGER: Inhibition of human NCI-H748 cell growth in a cell viability assay.

[14] = system: NCI-H1563; experiment: cells; type: functional, cell-based; conditions: Homo sapiens;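 also: growth inhibition of human NCI-H1563 cells, read out with a cell viability assay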
Description: SANGER: Inhibition of human NCI-H1563 cell growth in a cell viability assay.

[15] = system: NCI-H2087; experiment: cells; type: functional, cell-based; conditions: Homo sapiens;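 also: growth inhibition determined with a cell viability readout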
Description: SANGER: Inhibition of human NCI-H2087 cell growth in a cell viability assay.

[16] = system: DU-145; experiment: cells; type: functional, cell-based; conditions: Homo sapiens
Description: SANGER: Inhibition of human DU-145 cell growth in a cell viability assay.

[17] = system: EW-24; experiment: cells; type: functional, cell-based, Homo sapiens; conditions: Homo sapiens, EW-24;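 also: human EW-24 cancer cell line, growth inhibition read out via a cell viability assay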
Description: SANGER: Inhibition of human EW-24 cell growth in a cell viability assay.

[18] = system: HT1197; experiment: cells; type: functional, cell-based, HT-1197; conditions: Homo sapiens
Description: SANGER: Inhibition of human HT-1197 cell growth in a cell viability assay.

[19] = system: ARH-77; experiment: cells; type: functional, cell-based, Homo sapiens; conditions: Homo sapiens, ARH-77;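 also: growth inhibition of ARH-77 cells, read out by a cell viability assay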
Description: SANGER: Inhibition of human ARH-77 cell growth in a cell viability assay.

[20] = system: LCLC-97TM1; experiment: cells; type: functional, cell-based; conditions: Homo sapiens;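 also: cell viability assay measuring growth inhibition of human LCLC-97TM1 cells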
Description: SANGER: Inhibition of human LCLC-97TM1 cell growth in a cell viability assay.

[21] = system: TYK-nu; experiment: cells; type: functional, cell-based; conditions: Homo sapiens;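 also: growth inhibition of human TYK-nu cells, read out by a cell viability assay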
Description: SANGER: Inhibition of human TYK-nu cell growth in a cell viability assay.

[22] = system: COLO-741; experiment: cells; type: functional, cell-based; conditions: Homo sapiens
Description: SANGER: Inhibition of human COLO-741 cell growth in a cell viability assay.

[23] = system: COLO-678; experiment: cells; type: functional, cell-based; conditions: Homo sapiens
Description: SANGER: Inhibition of human COLO-678 cell growth in a cell viability assay.

[24] = system: CAL-33; experiment: cells; type: functional, cell-based; conditions: Homo sapiens;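 also: growth inhibition of CAL-33 cells, read out with a cell viability assay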
Description: SANGER: Inhibition of human CAL-33 cell growth in a cell viability assay.

[25] = system: NCI-H520; experiment: cells; type: functional, cell-based; conditions: Homo sapiens;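 also: growth inhibition of NCI-H520 cells, measured by a cell viability assay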
Description: SANGER: Inhibition of human NCI-H520 cell growth in a cell viability assay.

[26] = system: OPM-2; experiment: cells; type: functional, cell-based, Homo sapiens; conditions: Homo sapiens, OPM-2;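 also: growth of OPM-2 cells measured with a viability assay, IC50 for suppression of proliferation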
Description: SANGER: Inhibition of human OPM-2 cell growth in a cell viability assay.

[27] = system: SW948; experiment: cells; type: functional, cell-based; conditions: Homo sapiens;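 also: growth inhibition of SW948 cells, read out with a cell viability assay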
Description: SANGER: Inhibition of human SW948 cell growth in a cell viability assay.

[28] = system: TE-15; experiment: cells; type: functional, cell-based, Homo sapiens; conditions: Homo sapiens, TE-15;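 also: cell viability readout of growth inhibition in TE-15 cells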
Description: SANGER: Inhibition of human TE-15 cell growth in a cell viability assay.

[29] = system: BL-41; experiment: cells; type: functional, cell-based; conditions: Homo sapiens;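 also: growth inhibition of human BL-41 cells, read out with a cell viability assay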
Description: SANGER: Inhibition of human BL-41 cell growth in a cell viability assay.

[30] = system: 769-P; experiment: cells; type: functional, cell-based; conditions: Homo sapiens
Description: SANGER: Inhibition of human 769-P cell growth in a cell viability assay.

[31] = system: BPH-1; experiment: cells; type: functional, cell-based; conditions: Homo sapiens;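 also: cell viability assay measuring growth inhibition of human BPH-1 cells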
Description: SANGER: Inhibition of human BPH-1 cell growth in a cell viability assay.

[32] = system: H4; experiment: cells; type: functional, cell-based; conditions: Homo sapiens
Description: SANGER: Inhibition of human H4 cell growth in a cell viability assay.

[33] = system: NCI-H727; experiment: cells; type: functional, cell-based; conditions: Homo sapiens;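 also: growth inhibition of human NCI-H727 cells, read out with a cell viability assay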
Description: SANGER: Inhibition of human NCI-H727 cell growth in a cell viability assay.

[34] = system: CESS; experiment: SANGER: Inhibition of human CESS cell growth in a cell viability assay.; type: functional, cell-based; conditions: Homo sapiens, CESS
[35] = system: J82; experiment: cells; type: functional, cell-based; conditions: Homo sapiens;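 also: growth inhibition of J82 cells, read out with a cell viability assay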
Description: SANGER: Inhibition of human J82 cell growth in a cell viability assay.

[36] = system: BL-70; experiment: SANGER: Inhibition of human BL-70 cell growth in a cell viability assay.; type: functional, cell-based; conditions: Homo sapiens, BL-70
[37] = system: NCI-H2081; experiment: cells; type: functional, cell-based, Homo sapiens; conditions: Homo sapiens, NCI-H2081;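 also: growth inhibition of human NCI-H2081 cells, read out with a cell viability assay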
Description: SANGER: Inhibition of human NCI-H2081 cell growth in a cell viability assay.

[38] = system: CAL-72; experiment: cells; type: functional, cell-based; conditions: Homo sapiens;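 also: cell viability assay measuring inhibition of proliferation in the CAL-72 cell line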
Description: SANGER: Inhibition of human CAL-72 cell growth in a cell viability assay.

[39] = system: HCC70; experiment: cells; type: functional, cell-based; conditions: Homo sapiens;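 also: cell viability assay measuring how strongly the compound suppresses proliferation of HCC70 cells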
Description: SANGER: Inhibition of human HCC70 cell growth in a cell viability assay.

[40] = system: ACHN; experiment: cells; type: functional, cell-based; conditions: Homo sapiens;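 also: cell viability read-out used to gauge how strongly growth of human ACHN cells is suppressed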
Description: SANGER: Inhibition of human ACHN cell growth in a cell viability assay.

[41] = system: SAOS-2; experiment: cells; type: functional, cell-based; conditions: Homo sapiens;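 also: growth inhibition of human Saos-2 cells determined by a cell viability assay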
Description: SANGER: Inhibition of human Saos-2 cell growth in a cell viability assay.

[42] = system: SNU-16; experiment: cells; type: functional, cell-based, Homo sapiens; conditions: Homo sapiens, SNU-16;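 also: growth inhibition of human SNU-16 cells, determined with a cell viability readout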
Description: SANGER: Inhibition of human NCI-SNU-16 cell growth in a cell viability assay.

[43] = system: HPAF-II; experiment: cells; type: functional, cell-based; conditions: Homo sapiens;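 also: growth inhibition of HPAF-II cells, read out with a cell viability assay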
Description: SANGER: Inhibition of human HPAF-II cell growth in a cell viability assay.

[44] = system: FaDu; experiment: cells; type: functional, cell-based; conditions: Homo sapiens;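 also: cell viability readout of growth inhibition in FaDu cells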
Description: SANGER: Inhibition of human FADU cell growth in a cell viability assay.

[45] = system: SCC-25; experiment: cells; type: functional, cell-based; conditions: Homo sapiens;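 also: growth inhibition of SCC-25 cells, measured with a cell viability assay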
Description: SANGER: Inhibition of human SCC-25 cell growth in a cell viability assay.

[46] = system: LoVo; experiment: cells; type: functional, cell-based; conditions: Homo sapiens;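 also: growth inhibition of human LoVo cells, read out with a cell viability assay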
Description: SANGER: Inhibition of human LoVo cell growth in a cell viability assay.

[47] = system: NCI-H322M; experiment: cells; type: functional, cell-based, Homo sapiens; conditions: Homo sapiens, NCI-H322M;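 also: cell viability assay measuring inhibition of growth of human NCI-H322M cells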
Description: SANGER: Inhibition of human NCI-H322M cell growth in a cell viability assay.

[48] = system: BOKU; experiment: cells; type: functional, cell-based; conditions: Homo sapiens;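 also: growth inhibition of the human BOKU cell line, read out by a cell viability assay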
Description: SANGER: Inhibition of human BOKU cell growth in a cell viability assay.

[49] = system: CAMA-1; experiment: cells; type: functional, cell-based; conditions: Homo sapiens;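 also: growth inhibition of CAMA-1 cells, read out with a cell viability assay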
Description: SANGER: Inhibition of human CAMA-1 cell growth in a cell viability assay.

[50] = system: HCC1806; experiment: cells; type: functional, cell-based; conditions: Homo sapiens;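 also: growth inhibition of the cancer cell line, determined with a cell viability assay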
Description: SANGER: Inhibition of human HCC1806 cell growth in a cell viability assay.

[51] = system: SW1990; experiment: cells; type: functional, cell-based; conditions: Homo sapiens
Description: SANGER: Inhibition of human SW1990 cell growth in a cell viability assay.

[52] = system: KMS-12-PE; experiment: cells; type: functional, cell-based, Homo sapiens; conditions: Homo sapiens, KMS-12-PE;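 also: growth inhibition of human KMS-12-PE cells, measured with a cell viability assay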
Description: SANGER: Inhibition of human KMS-12-PE cell growth in a cell viability assay.

[53] = system: HuTu80; experiment: cells; type: functional, cell-based, Homo sapiens, HUTU-80; conditions: Homo sapiens, HuTu80;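 also: growth inhibition of HuTu80 human cells, determined with a cell viability readout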
Description: SANGER: Inhibition of human HUTU-80 cell growth in a cell viability assay.

[54] = system: COR-L105; experiment: cells; type: functional, cell-based; conditions: Homo sapiens
Description: SANGER: Inhibition of human COR-L105 cell growth in a cell viability assay.

[55] = system: Capan-2; experiment: cells; type: functional, cell-based; conditions: Homo sapiens;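 also: Capan-2 cell growth inhibition, read out with a viability assay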
Description: SANGER: Inhibition of human Capan-2 cell growth in a cell viability assay.

[56] = system: MIA PaCa-2; experiment: cells; type: functional, cell-based; conditions: Homo sapiens;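 also: growth inhibition of MIA PaCa-2 cells, read out with a cell viability assay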
Description: SANGER: Inhibition of human MIA-PaCa-2 cell growth in a cell viability assay.

[57] = system: KYSE-150 cell line; experiment: cells; type: functional, cell-based; conditions: Homo sapiens;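 also: growth inhibition of human KYSE-150 cells, read out with a cell viability assay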
Description: SANGER: Inhibition of human KYSE-150 cell growth in a cell viability assay.

[58] = system: UMUC3; experiment: cells; type: functional, cell-based; conditions: Homo sapiens;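 also: growth inhibition of human UM-UC-3 cells, read out with a cell viability assay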
Description: SANGER: Inhibition of human UM-UC-3 cell growth in a cell viability assay.

[59] = system: A2780; experiment: cells; type: functional, cell-based; conditions: Homo sapiens;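 also: growth inhibition of A2780 cells, read out with a cell viability assay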
Description: SANGER: Inhibition of human A2780 cell growth in a cell viability assay.

## COC(=O)[C@H](CCSC)NC(=O)c1ccc(NC[C@@H](N)CS)cc1-c1ccccc1
[1]
  IC50: > 1020 nM
[2]
  IC50: > 1020 nM
[3]
  IC50: > 1020 nM
[4]
  IC50: > 1020 nM
[5]
  IC50: > 1020 nM
[6]
  IC50: > 1020 nM
[7]
  IC50: > 1020 nM
[8]
  IC50: > 1020 nM
[9]
  IC50: > 1020 nM
[10]
  IC50: > 1020 nM
[11]
  IC50: > 1020 nM
[12]
  IC50: > 1020 nM
[13]
  IC50: > 1020 nM
[14]
  IC50: > 1020 nM
[15]
  IC50: > 1020 nM
[16]
  IC50: > 1020 nM
[17]
  IC50: > 1020 nM
[18]
  IC50: > 1020 nM
[19]
  IC50: > 1020 nM
[20]
  IC50: > 1020 nM
[21]
  IC50: > 1020 nM
[22]
  IC50: > 1020 nM
[23]
  IC50: > 1020 nM
[24]
  IC50: > 1020 nM
[25]
  IC50: > 1020 nM
[26]
  IC50: > 1020 nM
[27]
  IC50: > 1020 nM
[28]
  IC50: > 1020 nM
[29]
  IC50: > 1020 nM
[30]
  IC50: > 1020 nM
[31]
  IC50: > 1020 nM
[32]
  IC50: > 1020 nM
[33]
  IC50: > 1020 nM
[34]
  IC50: > 1020 nM
[35]
  IC50: > 1020 nM
[36]
  IC50: > 1020 nM
[37]
  IC50: > 1020 nM
[38]
  IC50: > 1020 nM
[39]
  IC50: > 1020 nM
[40]
  IC50: > 1020 nM
[41]
  IC50: > 1020 nM
[42]
  IC50: > 1020 nM
[43]
  IC50: > 1020 nM
[44]
  IC50: > 1020 nM
[45]
  IC50: > 1020 nM
[46]
  IC50: > 1020 nM
[47]
  IC50: > 1020 nM
[48]
  IC50: > 1020 nM
[49]
  IC50: > 1020 nM
[50]
  IC50: > 1020 nM
[51]
  IC50: > 1020 nM
[52]
  IC50: > 1020 nM
[53]
  IC50: > 1020 nM
[54]
  IC50: > 1020 nM
[55]
  IC50: > 1020 nM
[56]
  IC50: > 1020 nM
[57]
  IC50: > 1020 nM
[58]
  IC50: > 1020 nM
[59]
  IC50: > 1020 nM

## O=S(=O)(O)c1ccc2cc(/N=N/c3cc(S(=O)(=O)O)c4cccnc4c3O)ccc2c1
[1]
  IC50: > 16000 nM
[2]
  IC50: > 16000 nM
[3]
  IC50: > 16000 nM
[4]
  IC50: > 16000 nM
[5]
  IC50: > 16000 nM
[6]
  IC50: > 16000 nM
[7]
  IC50: > 16000 nM
[8]
  IC50: > 16000 nM
[9]
  IC50: > 16000 nM
[10]
  IC50: > 16000 nM
[11]
  IC50: > 16000 nM
[12]
  IC50: > 16000 nM
[13]
  IC50: > 16000 nM
[14]
  IC50: > 16000 nM
[15]
  IC50: > 16000 nM
[16]
  IC50: > 16000 nM
[17]
  IC50: > 16000 nM
[18]
  IC50: > 16000 nM
[19]
  IC50: > 16000 nM
[20]
  IC50: > 16000 nM
[21]
  IC50: > 16000 nM
[22]
  IC50: > 16000 nM
[23]
  IC50: > 16000 nM
[24]
  IC50: > 16000 nM
[25]
  IC50: > 16000 nM
[26]
  IC50: > 16000 nM
[27]
  IC50: > 16000 nM
[28]
  IC50: > 16000 nM
[29]
  IC50: > 16000 nM
[30]
  IC50: > 16000 nM
[31]
  IC50: > 16000 nM
[32]
  IC50: > 16000 nM
[33]
  IC50: > 16000 nM
[34]
  IC50: > 16000 nM
[35]
  IC50: > 16000 nM
[36]
  IC50: > 16000 nM
[37]
  IC50: > 16000 nM
[38]
  IC50: > 16000 nM
[39]
  IC50: > 16000 nM
[40]
  IC50: > 16000 nM
[41]
  IC50: > 16000 nM
[42]
  IC50: > 16000 nM
[43]
  IC50: > 16000 nM
[44]
  IC50: > 16000 nM
[45]
  IC50: > 16000 nM
[46]
  IC50: > 16000 nM
[47]
  IC50: > 16000 nM
[48]
  IC50: > 16000 nM
[49]
  IC50: > 16000 nM
[50]
  IC50: > 16000 nM
[51]
  IC50: > 16000 nM
[52]
  IC50: > 16000 nM
[53]
  IC50: > 16000 nM
[54]
  IC50: > 16000 nM
[55]
  IC50: > 16000 nM
[56]
  IC50: > 16000 nM
[57]
  IC50: > 16000 nM
[58]
  IC50: > 16000 nM
[59]
  IC50: > 16000 nM

## C[C@@H](Oc1cc(-c2cnn(C3CCNCC3)c2)cnc1N)c1c(Cl)ccc(F)c1Cl [CRIZOTINIB]
[2]
  IC50: > 2000 nM
[9]
  IC50: > 2000 nM
[13]
  IC50: > 2000 nM
[17]
  IC50: > 2000 nM
[19]
  IC50: > 2000 nM
[26]
  IC50: > 2000 nM
[28]
  IC50: > 2000 nM
[29]
  IC50: > 2000 nM
[34]
  IC50: > 2000 nM
[36]
  IC50: > 2000 nM
[37]
  IC50: > 2000 nM
[42]
  IC50: > 2000 nM
[47]
  IC50: > 2000 nM
[48]
  IC50: > 2000 nM
[52]
  IC50: > 2000 nM
[53]
  IC50: > 2000 nM
